{
  "source": "patent US20060069132A1",
  "about": "“Azolecarboxamide herbicides” (priority 2004, published 2006)",
  "key": {"barnyardgrass [1]": {"test_system": "barnyardgrass", "experiment": "Test B pre-/postemergence herbicide test", "type": "in vivo, Echinochloa crus-galli", "summary_of_the_method": "(§1)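 Pre: seeds sown, then sprayed. Post: 1–4-leaf plants (2–18 cm) sprayed at the same time. Paddy: flooded, treated at 2-leaf stage. Formulation: non-phytotoxic solvent with surfactant. Greenhouse 13–15 days; visual 0–100 score relative to controls.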"}, "Surinam grass": {"test_system": "Surinam grass", "experiment": "Test B pre-/postemergence herbicide test", "type": "in vivo, Urochloa decumbens", "summary_of_the_method": "as §1"}, "cocklebur": {"test_system": "cocklebur", "experiment": "Test B pre-/postemergence herbicide test", "type": "in vivo, Xanthium strumarium", "summary_of_the_method": "as §1"}, "corn": {"test_system": "corn", "experiment": "Test B pre-/postemergence herbicide test", "type": "in vivo, Zea mays", "summary_of_the_method": "as §1"}, "large crabgrass": {"test_system": "large crabgrass", "experiment": "Test B pre-/postemergence herbicide test", "type": "in vivo, Digitaria sanguinalis", "summary_of_the_method": "as §1"}, "lambsquarters": {"test_system": "lambsquarters", "experiment": "Test B pre-/postemergence herbicide test", "type": "in vivo, Chenopodium album", "summary_of_the_method": "as §1"}, "morningglory": {"test_system": "morningglory", "experiment": "Test B pre-/postemergence herbicide test", "type": "in vivo, Ipomoea coccinea", "summary_of_the_method": "as §1"}, "velvetleaf": {"test_system": "velvetleaf", "experiment": "Test B pre-/postemergence herbicide test", "type": "in vivo, Abutilon theophrasti", "summary_of_the_method": "as §1"}, "blackgrass": {"test_system": "blackgrass", "experiment": "Test B postemergence herbicide test", "type": "in vivo, Alopecurus myosuroides", "conditions": "scale 0 (no effect) to 100 (complete control)", "summary_of_the_method": "(§2)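 Read-out: visual comparison with controls, scored 0 to 100, where 100 means complete control and 0 no effect. Formulated chemicals were applied postemergence to plants 2–18 cm tall (1- to 4-leaf), or to flooded-paddy plants at the 2-leaf stage, then held 13 to 15 days under glass.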"}, "wheat": {"test_system": "wheat", "experiment": "Test B postemergence herbicide test", "type": "in vivo, Triticum aestivum", "design": "key to Wheat plant response rating: 0 = no effect, 100 = complete control", "conditions": "scale 0 (no effect) to 100 (complete control)", "summary_of_the_method": "(§3)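 Greenhouse test; postemergence application to plants at 1–4 leaves (2–18 cm); paddy species at 2 leaves; evaluated visually vs controls at 13–15 days; scale 0–100 (100 = complete control).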"}, "wild oat": {"test_system": "wild oat", "experiment": "Test B postemergence herbicide test", "type": "in vivo, Avena fatua", "conditions": "scale 0 (no effect) to 100 (complete control)", "summary_of_the_method": "as §3"}, "rice": {"test_system": "rice", "experiment": "Test B flooded paddy test", "type": "in vivo, Oryza sativa", "conditions": "1000 g ai/ha, visual rating, scale 0 to 100 (0 no effect, 100 complete control), 13 to 15 days", "summary_of_the_method": "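Plants grow to 1- to 4-leaf stage (2–18 cm) for postemergence spraying, or to 2-leaf stage for the paddy test. Formulated compound is applied. Greenhouse holding lasts 13–15 days. Response is scored visually relative to controls, 0 no effect to 100 complete control; a dash means no result.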"}, "[2]": {"test_system": "small flower umbrella sedge", "experiment": "Test B flooded paddy test", "type": "in vivo, Cyperus difformis", "conditions": "1000 g ai/ha, visual rating, scale 0 to 100 (0 no effect, 100 complete control), 13 to 15 days", "summary_of_the_method": "as §2"}, "ducksalad": {"test_system": "ducksalad", "experiment": "Test B flooded paddy test", "type": "in vivo, Heteranthera limosa", "conditions": "1000 g ai/ha, visual rating, scale 0 to 100 (0 no effect, 100 complete control), 13 to 15 days", "summary_of_the_method": "as §2"}, "barnyardgrass [3]": {"test_system": "barnyardgrass", "experiment": "Test B flooded paddy test", "type": "in vivo, Echinochloa crus-galli", "conditions": "1000 g ai/ha, visual rating, scale 0 to 100 (0 no effect, 100 complete control), 13 to 15 days", "summary_of_the_method": "as §2"}, "[4]": {"conditions": "500 g ai/ha, visual rating 0-100, 0 no effect, 100 complete control, preemergence"}, "[5]": {"conditions": "Postemergence, 500 g ai/ha, visual rating after 13 to 15 days, scale 0 (no effect) to 100 (complete control)"}, "[6]": {"conditions": "postemergence, 125 g ai/ha, visual rating, scale 0 (no effect) to 100 (complete control)"}, "[7]": {"conditions": "preemergence, 125 g ai/ha, 0 to 100 scale, 0 is no effect, 100 is complete control"}, "[8]": {"conditions": "Postemergence, 500 g ai/ha, visual rating after 13 to 15 days"}, "[9]": {"conditions": "postemergence, 125 g ai/ha, visual rating"}},
  "data": [
    {"smiles": "CCOC(=O)c1cc(NC(=O)c2cc(C(C)(C)C)nn2CC)ccc1OCC", "note": "[Compound 95]", "values": [
      {"measurement": "Plant response rating, Barnyardgrass", "setting": "barnyardgrass [1]; [4]", "result": 80},
      {"measurement": "Plant response rating, Barnyardgrass", "setting": "barnyardgrass [1]; [5]", "result": 20},
      {"measurement": "Barnyardgrass plant response rating", "setting": "barnyardgrass [1]; [6]", "result": 0},
      {"measurement": "Plant response rating, Barnyardgrass", "setting": "barnyardgrass [1]; [7]", "result": 50},
      {"measurement": "Plant response rating, Surinam Grass", "setting": "Surinam grass; [4]", "result": 70},
      {"measurement": "Plant response rating, Surinam Grass", "setting": "Surinam grass; [5]", "result": 20},
      {"measurement": "Surinam Grass plant response rating", "setting": "Surinam grass; [6]", "result": 20},
      {"measurement": "Plant response rating, Surinam Grass", "setting": "Surinam grass; [7]", "result": 20},
      {"measurement": "Plant response rating, Cocklebur", "setting": "cocklebur; [4]", "result": 0},
      {"measurement": "Plant response rating, Cocklebur", "setting": "cocklebur; [5]", "result": 70},
      {"measurement": "Cocklebur plant response rating", "setting": "cocklebur; [6]", "result": 60},
      {"measurement": "Plant response rating, Cocklebur", "setting": "cocklebur; [7]", "result": 0},
      {"measurement": "Plant response rating, Corn", "setting": "corn; [4]", "result": 60},
      {"measurement": "Plant response rating, Corn", "setting": "corn; [5]", "result": 10},
      {"measurement": "Corn plant response rating", "setting": "corn; [6]", "result": 10},
      {"measurement": "Plant response rating, Corn", "setting": "corn; [7]", "result": 60},
      {"measurement": "Plant response rating, Crabgrass, Large", "setting": "large crabgrass; [4]", "result": 90},
      {"measurement": "Plant response rating, Crabgrass, Large", "setting": "large crabgrass; [5]", "result": 50},
      {"measurement": "Crabgrass, Large plant response rating", "setting": "large crabgrass; [6]", "result": 0},
      {"measurement": "Plant response rating, Crabgrass, Large", "setting": "large crabgrass; [7]", "result": 60},
      {"measurement": "Plant response rating, Lambsquarters", "setting": "lambsquarters; [4]", "result": 100},
      {"measurement": "Plant response rating, Lambsquarters", "setting": "lambsquarters; [5]", "result": 100},
      {"measurement": "Lambsquarters plant response rating", "setting": "lambsquarters; [6]", "result": 100},
      {"measurement": "Plant response rating, Lambsquarters", "setting": "lambsquarters; [7]", "result": 100},
      {"measurement": "Plant response rating, Morningglory", "setting": "morningglory; [5]", "result": 60},
      {"measurement": "Morningglory plant response rating", "setting": "morningglory; [6]", "result": 0},
      {"measurement": "Plant response rating, Morningglory", "setting": "morningglory; [7]", "result": 10},
      {"measurement": "Plant response rating, Velvetleaf", "setting": "velvetleaf; [4]", "result": 60},
      {"measurement": "Plant response rating, Velvetleaf", "setting": "velvetleaf; [5]", "result": 60},
      {"measurement": "Velvetleaf plant response rating", "setting": "velvetleaf; [6]", "result": 50},
      {"measurement": "Plant response rating, Velvetleaf", "setting": "velvetleaf; [7]", "result": 0},
      {"measurement": "Plant response rating, Blackgrass", "setting": "blackgrass; [8]", "result": 0},
      {"measurement": "Blackgrass plant response rating", "setting": "blackgrass; [9]", "result": 0},
      {"measurement": "Plant response rating, Wheat", "setting": "wheat; [8]", "result": 10},
      {"measurement": "Wheat plant response rating", "setting": "wheat; [9]", "result": 10},
      {"measurement": "Plant response rating, Oat, Wild", "setting": "wild oat; [8]", "result": 20},
      {"measurement": "Oat, Wild plant response rating", "setting": "wild oat; [9]", "result": 10},
      {"measurement": "Rice plant response rating", "setting": "rice", "result": 60},
      {"measurement": "Sedge, Umbrella plant response rating", "setting": "[2]", "result": 80},
      {"measurement": "Ducksalad plant response rating", "setting": "ducksalad", "result": 80},
      {"measurement": "Barnyardgrass plant response rating", "setting": "barnyardgrass [3]", "result": 50}
    ]}
  ]
}
